Results taken from patent publication US20130012432A1, “Peptides for Treatment of Obesity” (Novo Nordisk A/S, priority 2010, published 2013).
In brackets after ≈: the same amount, converted by molar mass. Positions of bridges follow the written chain, without caps; N, C: chain ends. Non-standard residues stand in square brackets, D forms with d. Residues, ends and D or L forms follow the SMILES beside them. Groups on a side chain read outwards from the residue. *: point of attachment. Palmitoyl(16-(5-tetrazolyl)) = O=C(CCCCCCCCCCCCCCCc1nnn[nH]1)*; Lys(CH2CO2H)2 = N[C@@H](CCCCN(CC(=O)O)CC(=O)O)C(=O)O; C17 diacid = O=C(O)CCCCCCCCCCCCCCCC(=O)*; C16 diacid = O=C(O)CCCCCCCCCCCCCCC(=O)*; Orn = NCCC[C@H](N)C(=O)O; Dab = NCC[C@H](N)C(=O)O; Dap = NC[C@H](N)C(=O)O; AEEA = NCCOCCOCC(=O)O

Assay: physchem
Method: From a stock solution in vehicle, either H2O or 10 mM phosphate, containing 1 mg (as weighed) compound per ml, 8-11 aliquots are withdrawn and pH-adjusted individually with HCl/NaOH, to cover the whole pH range.

Compound | solubility (pH 5.3, Solubility Conc.) [µM] | solubility (pH 6.1, Solubility Conc.) [µM] | solubility (pH 6.4, Solubility Conc.) [µM] | solubility (pH 6.5, Solubility Conc.) [µM] | solubility (pH 7.1, Solubility Conc.) [µM] | solubility (pH 7.4, Solubility Conc.) [µM] | solubility (pH 7.7, Solubility Conc.) [µM] | solubility (pH 7.9, Solubility Conc.) [µM] | solubility (pH 6.3, Solubility Conc.) [µM] | solubility (pH 6.7, Solubility Conc.) [µM] | solubility (pH 6.9, Solubility Conc.) [µM] | solubility (pH 7.2, Solubility Conc.) [µM] | solubility (pH 7.3, Solubility Conc.) [µM] | solubility (pH 7.5, Solubility Conc.) [µM] | solubility (pH 7.6, Solubility Conc.) [µM] | solubility (pH 8, Solubility Conc.) [µM] | solubility (pH 7.8, Solubility Conc.) [µM] | other results
CC(=O)N[C@H]1CCC(=O)NCCC[C@@H](C(=O)N2CCC[C@H]2C(=O)N2CCC[C@H]2C(=O)N[C@@H](CCCNC(=N)N)C(=O)N[C@@H](CC(=O)O)C(=O)N[C@@H](CCCCN(CC(=O)O)CC(=O)O)C(=O)N[C@@H](CCCCNC(=O)COCCOCCNC(=O)CCCCCCCCCCCCCCC(=O)O)C(N)=O)NC(=O)[C@H](Cc2c[nH]c3ccccc23)NC(=O)[C@H](CCCNC(=N)N)NC(=O)[C@@H](Cc2ccccc2)NC(=O)[C@H](Cc2cnc[nH]2)NC1=O [Example 18, Ac-c[Glu-His-D-Phe-Arg-Trp-Orn]-Pro-Pro-Arg-Asp-Lys(biscarboxymethyl)-Lys({2-[2-(15-carboxypentadecanoylamino)ethoxy]ethoxy}acetyl)-NH2] (Ac-EH[dF]RW[Orn]PPRD[Lys(CH2CO2H)2]K([AEEA-C16 diacid])-NH2; lactam 1-6) | 193 (≈ 417 µg/mL) | 310 (≈ 670 µg/mL) | 326 (≈ 705 µg/mL) | 392 (≈ 848 µg/mL) | 484 (≈ 1050 µg/mL) | 449 (≈ 971 µg/mL) | 451 (≈ 975 µg/mL) | 474 (≈ 1030 µg/mL) | – | – | – | – | – | – | – | – | – | solubility (pH 6.8, Solubility Conc.): 447 µM (≈ 967 µg/mL)
CC(=O)N[C@H]1CCCNC(=O)C[C@@H](C(=O)N2CCC[C@H]2C(=O)N2CCC[C@H]2C(=O)N[C@@H](CCCNC(=N)N)C(=O)N[C@@H](CCC(=O)O)C(=O)N[C@@H](CCCCN(CC(=O)O)CC(=O)O)C(=O)N[C@@H](CCCCNC(=O)COCCOCCNC(=O)CCCCCCCCCCCCCCCc2nnn[nH]2)C(N)=O)NC(=O)[C@H](Cc2c[nH]c3ccccc23)NC(=O)[C@H](CCCNC(=N)N)NC(=O)[C@@H](Cc2ccccc2)NC(=O)[C@H](Cc2c[nH]cn2)NC1=O [Example 19, Ac-c[Orn-His-D-Phe-Arg-Trp-Asp]-Pro-Pro-Arg-Glu-Lys(biscarboxymethyl)-Lys[(2-{2-[16-(tetrazol-5-yl)hexadecanoylamino]ethoxy}ethoxy)acetyl]-NH2] (Ac-[Orn]H[dF]RWDPPRE[Lys(CH2CO2H)2]K([AEEA-Palmitoyl(16-(5-tetrazolyl))])-NH2; lactam 1-6) | – | – | – | – | – | – | 517 (≈ 1140 µg/mL) | 441 (≈ 970 µg/mL) | 26 (≈ 57.2 µg/mL) | 38 (≈ 83.6 µg/mL) | 70 (≈ 154 µg/mL) | 433 (≈ 953 µg/mL) | 447 (≈ 984 µg/mL) | 474 (≈ 1040 µg/mL) | – | – | – | –
CC(=O)N[C@H]1CCCNC(=O)C[C@@H](C(=O)N2CCC[C@H]2C(=O)N2CCC[C@H]2C(=O)N[C@@H](Cc2c[nH]cn2)C(=O)N[C@@H](CCC(=O)O)C(=O)N[C@@H](CCCCN(CC(=O)O)CC(=O)O)C(=O)N[C@@H](CCCCNC(=O)COCCOCCNC(=O)CCCCCCCCCCCCCCCC(=O)O)C(N)=O)NC(=O)[C@H](Cc2c[nH]c3ccccc23)NC(=O)[C@H](CCCNC(=N)N)NC(=O)[C@@H](Cc2ccccc2)NC(=O)[C@H](Cc2c[nH]cn2)NC1=O [Example 55, Ac-c[Orn-His-D-Phe-Arg-Trp-Asp]-Pro-Pro-His-Glu-Lys(biscarboxymethyl)-Lys({2-[2-(16-carboxyhexadecanoylamino)ethoxy]ethoxy}acetyl)-NH2] (Ac-[Orn]H[dF]RWDPPHE[Lys(CH2CO2H)2]K([AEEA-C17 diacid])-NH2; lactam 1-6) | – | – | – | 236 (≈ 509 µg/mL) | – | – | 435 (≈ 939 µg/mL) | – | 152 (≈ 328 µg/mL) | 436 (≈ 941 µg/mL) | 426 (≈ 919 µg/mL) | 414 (≈ 893 µg/mL) | – | – | 422 (≈ 910 µg/mL) | 426 (≈ 919 µg/mL) | – | solubility (pH 6.6, Solubility Conc.): 337 µM (≈ 727 µg/mL)
CC(=O)N[C@H]1CNC(=O)C[C@@H](C(=O)N2CCC[C@H]2C(=O)N2CCC[C@H]2C(=O)N[C@@H](CCCNC(=N)N)C(=O)N[C@@H](CC(=O)O)C(=O)N[C@@H](CCCCN(CC(=O)O)CC(=O)O)C(=O)N[C@@H](CCCCNC(=O)COCCOCCNC(=O)CCCCCCCCCCCCCCCc2nnn[nH]2)C(N)=O)NC(=O)[C@H](Cc2c[nH]c3ccccc23)NC(=O)[C@H](CCCNC(=N)N)NC(=O)[C@@H](Cc2ccccc2)NC(=O)[C@H](Cc2c[nH]cn2)NC1=O [Example 36, Ac-c[Dap-His-D-Phe-Arg-Trp-Asp]-Pro-Pro-Arg-Asp-Lys(biscarboxymethyl)-Lys[(2-{2-[16-(tetrazol-5-yl)hexadecanoylamino]ethoxy}ethoxy)acetyl]-NH2] (Ac-[Dap]H[dF]RWDPPRD[Lys(CH2CO2H)2]K([AEEA-Palmitoyl(16-(5-tetrazolyl))])-NH2; lactam 1-6) | – | – | – | 28 (≈ 60.4 µg/mL) | 87 (≈ 188 µg/mL) | 261 (≈ 563 µg/mL) | – | 514 (≈ 1110 µg/mL) | – | – | – | – | – | 488 (≈ 1050 µg/mL) | 504 (≈ 1090 µg/mL) | – | – | solubility (pH 5.7, Solubility Conc.): 17 µM (≈ 36.7 µg/mL); solubility (pH 6, Solubility Conc.): 18 µM (≈ 38.9 µg/mL); solubility (pH 8.1, Solubility Conc.): 505 µM (≈ 1090 µg/mL)
CC(=O)N[C@H]1CCC(=O)NCC[C@@H](C(=O)N2CCC[C@H]2C(=O)N2CCC[C@H]2C(=O)N[C@@H](CCCNC(=N)N)C(=O)N[C@@H](CC(=O)O)C(=O)N[C@@H](CCCCN(CC(=O)O)CC(=O)O)C(=O)N[C@@H](CCCCNC(=O)COCCOCCNC(=O)CCCCCCCCCCCCCCCc2nnn[nH]2)C(N)=O)NC(=O)[C@H](Cc2c[nH]c3ccccc23)NC(=O)[C@H](CCCNC(=N)N)NC(=O)[C@@H](Cc2ccccc2)NC(=O)[C@H](Cc2c[nH]cn2)NC1=O [Example 16, Ac-c[Glu-His-D-Phe-Arg-Trp-Dab]-Pro-Pro-Arg-Asp-Lys(biscarboxymethyl)-Lys[(2-{2-[16-(tetrazol-5-yl)hexadecanoylamino]ethoxy}ethoxy)acetyl]-NH2] (Ac-EH[dF]RW[Dab]PPRD[Lys(CH2CO2H)2]K([AEEA-Palmitoyl(16-(5-tetrazolyl))])-NH2; lactam 1-6) | – | – | – | – | 96 (≈ 210 µg/mL) | 262 (≈ 573 µg/mL) | – | – | – | 42 (≈ 91.8 µg/mL) | – | – | 191 (≈ 418 µg/mL) | 357 (≈ 781 µg/mL) | 431 (≈ 942 µg/mL) | 447 (≈ 977 µg/mL) | 409 (≈ 894 µg/mL) | –
CC(=O)N[C@H]1CCCNC(=O)C[C@@H](C(=O)N2CCC[C@H]2C(=O)N2CCC[C@H]2C(=O)N[C@@H](Cc2c[nH]cn2)C(=O)N[C@@H](CCC(=O)O)C(=O)N[C@@H](CCCCN(CC(=O)O)CC(=O)O)C(=O)N[C@@H](CCCCNC(=O)COCCOCCNC(=O)CCCCCCCCCCCCCCC(=O)O)C(N)=O)NC(=O)[C@H](Cc2c[nH]c3ccccc23)NC(=O)[C@H](CCCNC(=N)N)NC(=O)[C@@H](Cc2ccccc2)NC(=O)[C@H](Cc2c[nH]cn2)NC1=O [Example 51, Ac-c[Orn-His-D-Phe-Arg-Trp-Asp]-Pro-Pro-His-Glu-Lys(biscarboxymethyl)-Lys({2-[2-(15-carboxypentadecanoylamino)ethoxy]ethoxy}acetyl)-NH2] (Ac-[Orn]H[dF]RWDPPHE[Lys(CH2CO2H)2]K([AEEA-C16 diacid])-NH2; lactam 1-6) | 204 (≈ 437 µg/mL) | 359 (≈ 770 µg/mL) | 450 (≈ 965 µg/mL) | – | – | – | – | – | – | 460 (≈ 986 µg/mL) | – | – | 468 (≈ 1000 µg/mL) | – | 485 (≈ 1040 µg/mL) | – | 457 (≈ 980 µg/mL) | solubility (pH 5.8, Solubility Conc.): 280 µM (≈ 600 µg/mL); solubility (pH 7, Solubility Conc.): 442 µM (≈ 947 µg/mL)
